Consider two compounds from patent US20200239530A1, “COMPOUNDS AND METHODS OF MODULATING PROTEIN DEGRADATION” (Vividion Therapeutics, Inc., priority 2017, published 2020).

Experiment in all cases: Cysteine liganding, probe competition
What all share (type): binding

Assay [1] deals with T1, HECTD1 E3 ubiquitin-protein ligase HECTD1 (Homo sapiens, UniProt Q9ULT8).
T1 construct: Cells were resuspended in cold PBS on ice and sonicated with a probe sonicator to achieve lysis; endogenous in cells
Summed up: (§1)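 Steps: sonicate cells in cold PBS; treat 5 mg/ml lysate with compound (25° C, 1 hr); add desthiobiotin iodoacetamide probe from a 10 mM stock (25° C, 1 hr); precipitate, reduce, alkylate, digest with trypsin; capture labelled peptides on streptavidin for analysis.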

Assay [2] has as its target T2, ATP6V1A V-type proton ATPase catalytic subunit A (Homo sapiens, UniProt P38606).
T2 construct: 200 μL of lysate containing 5 mg/ml proteome was treated with 2 μL of 100× compound stock; endogenous in cells
The conditions noted are these: for Liganded: ATP6V1A Res# 277, uniprot P38606. The gist of the method:
as §1

Assay [3] deals with T3, BACH1 Transcription regulator protein BACH1 (Homo sapiens, UniProt O14867).
T3 construct: Cells were resuspended in cold PBS on ice and sonicated with a probe sonicator to achieve lysis; endogenous in cells
T3 sequence (O14867 1-736): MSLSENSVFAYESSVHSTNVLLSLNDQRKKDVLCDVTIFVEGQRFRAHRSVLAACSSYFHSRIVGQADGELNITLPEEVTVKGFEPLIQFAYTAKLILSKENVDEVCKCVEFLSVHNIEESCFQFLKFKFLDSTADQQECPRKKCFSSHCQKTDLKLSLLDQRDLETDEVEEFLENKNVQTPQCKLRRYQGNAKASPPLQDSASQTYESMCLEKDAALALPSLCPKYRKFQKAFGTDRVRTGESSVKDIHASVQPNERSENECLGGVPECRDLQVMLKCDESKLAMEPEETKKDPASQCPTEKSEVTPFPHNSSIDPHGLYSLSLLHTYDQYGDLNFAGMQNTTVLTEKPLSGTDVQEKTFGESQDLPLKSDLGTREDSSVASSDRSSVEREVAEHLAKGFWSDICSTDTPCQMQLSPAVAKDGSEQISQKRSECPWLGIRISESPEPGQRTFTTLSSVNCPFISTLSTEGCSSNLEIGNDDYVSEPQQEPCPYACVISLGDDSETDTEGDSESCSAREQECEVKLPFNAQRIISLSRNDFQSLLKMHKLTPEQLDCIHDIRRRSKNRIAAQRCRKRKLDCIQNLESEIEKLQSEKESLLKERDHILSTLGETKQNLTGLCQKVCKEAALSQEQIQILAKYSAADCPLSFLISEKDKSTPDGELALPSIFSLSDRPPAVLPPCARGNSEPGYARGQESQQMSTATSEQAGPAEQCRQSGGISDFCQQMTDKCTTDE
The following applies: for Liganded: BACH1 Res# 224, uniprot O14867. Summed up:
as §1

T1 sequence (Q9ULT8 whole entry): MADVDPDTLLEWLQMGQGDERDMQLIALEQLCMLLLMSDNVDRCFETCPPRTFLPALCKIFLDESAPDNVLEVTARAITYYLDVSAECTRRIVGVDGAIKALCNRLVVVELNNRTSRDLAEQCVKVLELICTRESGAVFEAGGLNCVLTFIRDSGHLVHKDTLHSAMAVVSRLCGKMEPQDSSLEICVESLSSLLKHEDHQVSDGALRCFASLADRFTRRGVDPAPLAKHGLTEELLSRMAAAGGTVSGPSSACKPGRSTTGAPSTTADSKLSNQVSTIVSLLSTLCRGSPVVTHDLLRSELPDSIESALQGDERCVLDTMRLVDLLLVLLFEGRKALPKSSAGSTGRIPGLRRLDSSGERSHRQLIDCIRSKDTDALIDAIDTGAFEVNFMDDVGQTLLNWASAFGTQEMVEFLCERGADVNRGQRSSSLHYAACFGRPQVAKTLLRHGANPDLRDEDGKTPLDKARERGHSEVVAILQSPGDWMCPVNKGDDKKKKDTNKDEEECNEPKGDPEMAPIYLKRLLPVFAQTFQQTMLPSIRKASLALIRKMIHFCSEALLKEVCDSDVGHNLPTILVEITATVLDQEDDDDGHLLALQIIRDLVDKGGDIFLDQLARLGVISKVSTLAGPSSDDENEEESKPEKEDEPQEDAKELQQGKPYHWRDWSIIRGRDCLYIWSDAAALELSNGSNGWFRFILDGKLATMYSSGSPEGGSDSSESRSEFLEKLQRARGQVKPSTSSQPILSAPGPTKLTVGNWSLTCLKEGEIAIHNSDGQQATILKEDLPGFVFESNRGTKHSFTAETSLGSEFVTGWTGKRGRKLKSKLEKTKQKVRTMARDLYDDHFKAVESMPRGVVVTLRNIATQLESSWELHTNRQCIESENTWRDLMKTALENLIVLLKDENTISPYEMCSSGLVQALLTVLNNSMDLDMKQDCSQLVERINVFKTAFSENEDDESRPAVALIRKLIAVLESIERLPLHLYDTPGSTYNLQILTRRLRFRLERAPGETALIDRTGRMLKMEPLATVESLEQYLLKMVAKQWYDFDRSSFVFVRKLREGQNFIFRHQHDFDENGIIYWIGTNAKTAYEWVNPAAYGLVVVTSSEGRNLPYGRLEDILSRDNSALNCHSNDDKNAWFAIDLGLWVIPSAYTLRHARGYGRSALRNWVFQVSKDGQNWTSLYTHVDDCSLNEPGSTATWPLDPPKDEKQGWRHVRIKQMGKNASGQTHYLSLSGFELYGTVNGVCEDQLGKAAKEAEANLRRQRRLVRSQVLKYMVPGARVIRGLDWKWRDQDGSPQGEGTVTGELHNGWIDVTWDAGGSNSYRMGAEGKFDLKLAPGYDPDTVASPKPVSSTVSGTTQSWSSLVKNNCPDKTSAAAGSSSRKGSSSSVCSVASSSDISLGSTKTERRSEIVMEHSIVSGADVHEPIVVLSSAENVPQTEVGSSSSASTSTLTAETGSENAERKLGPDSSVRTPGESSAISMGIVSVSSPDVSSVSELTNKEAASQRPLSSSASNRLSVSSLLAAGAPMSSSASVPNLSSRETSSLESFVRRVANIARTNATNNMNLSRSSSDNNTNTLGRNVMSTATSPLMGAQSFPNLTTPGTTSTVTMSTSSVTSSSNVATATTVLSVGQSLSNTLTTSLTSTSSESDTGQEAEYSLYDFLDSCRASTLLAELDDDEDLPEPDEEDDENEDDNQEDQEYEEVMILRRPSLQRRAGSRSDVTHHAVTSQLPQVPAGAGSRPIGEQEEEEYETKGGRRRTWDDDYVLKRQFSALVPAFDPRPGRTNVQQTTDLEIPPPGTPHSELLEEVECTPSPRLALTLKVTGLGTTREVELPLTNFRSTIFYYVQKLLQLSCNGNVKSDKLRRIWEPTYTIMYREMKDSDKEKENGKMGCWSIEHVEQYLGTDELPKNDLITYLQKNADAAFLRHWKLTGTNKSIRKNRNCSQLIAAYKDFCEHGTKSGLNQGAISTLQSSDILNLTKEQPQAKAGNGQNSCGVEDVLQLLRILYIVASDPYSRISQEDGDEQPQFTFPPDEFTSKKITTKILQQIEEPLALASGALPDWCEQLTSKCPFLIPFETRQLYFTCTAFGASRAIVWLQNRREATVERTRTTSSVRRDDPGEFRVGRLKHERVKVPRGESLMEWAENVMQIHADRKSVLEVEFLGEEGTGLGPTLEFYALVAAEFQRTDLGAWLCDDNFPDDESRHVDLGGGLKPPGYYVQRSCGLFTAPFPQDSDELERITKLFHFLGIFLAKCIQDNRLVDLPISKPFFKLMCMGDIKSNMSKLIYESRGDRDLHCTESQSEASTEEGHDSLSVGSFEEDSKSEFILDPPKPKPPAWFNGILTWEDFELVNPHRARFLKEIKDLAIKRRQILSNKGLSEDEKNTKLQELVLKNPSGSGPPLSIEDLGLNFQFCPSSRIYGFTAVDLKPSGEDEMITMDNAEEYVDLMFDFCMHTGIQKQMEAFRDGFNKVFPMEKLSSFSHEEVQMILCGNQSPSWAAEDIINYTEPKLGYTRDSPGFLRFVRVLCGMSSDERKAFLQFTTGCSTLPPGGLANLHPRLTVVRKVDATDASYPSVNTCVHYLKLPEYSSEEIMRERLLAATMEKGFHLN
T2 sequence (P38606 whole entry): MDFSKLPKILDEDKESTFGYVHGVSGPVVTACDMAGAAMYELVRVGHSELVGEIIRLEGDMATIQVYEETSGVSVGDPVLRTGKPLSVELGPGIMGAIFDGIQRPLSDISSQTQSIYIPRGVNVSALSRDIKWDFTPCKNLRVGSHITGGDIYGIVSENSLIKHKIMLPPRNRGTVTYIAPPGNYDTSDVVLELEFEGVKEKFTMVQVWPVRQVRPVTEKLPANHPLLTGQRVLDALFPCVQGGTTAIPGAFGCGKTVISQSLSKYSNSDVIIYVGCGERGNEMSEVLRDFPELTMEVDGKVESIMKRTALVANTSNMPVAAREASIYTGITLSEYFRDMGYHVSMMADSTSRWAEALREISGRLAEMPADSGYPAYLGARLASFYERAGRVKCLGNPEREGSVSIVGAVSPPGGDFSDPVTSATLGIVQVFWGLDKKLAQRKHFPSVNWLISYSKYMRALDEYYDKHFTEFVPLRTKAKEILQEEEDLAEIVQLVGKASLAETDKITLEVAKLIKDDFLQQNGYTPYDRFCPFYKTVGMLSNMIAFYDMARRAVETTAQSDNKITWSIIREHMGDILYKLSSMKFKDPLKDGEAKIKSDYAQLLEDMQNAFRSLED

Turning to `O=C(CCl)Nc1cc(C(F)(F)F)cc(C(F)(F)F)c1` [KBO3], the figures for the 100 ave in assay [1] (uniprot Q9ULT8), in assay [2] (uniprot P38606) and in assay [3] (uniprot O14867) were 0.1, 18.165 and 53.8, respectively. In addition, the 500 ave in assay [1] (uniprot Q9ULT8) was 72.6; in assay [2] (uniprot P38606), 69.985; in assay [3] (uniprot O14867), 85.3. The 100 Max in assay [1] (uniprot Q9ULT8, unit assumed) was determined as 1.2%; in assay [2] (uniprot P38606), 27.98; in assay [3] (uniprot O14867), 53.8. In addition, the 500 Max in assay [1] (uniprot Q9ULT8, unit assumed) came out at 72.6%; in assay [2] (uniprot P38606), 76.55; in assay [3] (uniprot O14867), 85.3. Also, the Liganded result in assay [2] and in assay [3] was “YES” throughout.

Turning to `COc1ccc2c(c1)CCCN2C(=O)CCl` [KB02], the Liganded entry in assay [1] (HECTD1 Res# 1855, uniprot Q9ULT8) is “YES”; in assay [2] it was “YES”; in assay [3], “YES”.
